Experiment [1] concerns HPASMC (human pulmonary artery smooth muscle) cells. Briefly: Cell proliferation inhibition (CCK-8) in TGF-β stimulated HPASMC cells. It counts as cell-based. To be noted: 1 μM drug with TGF-β 10 ng/ml, 24 hours, vs TGF-β only, FIG. 3. As for the experimental part:
TGF-β stimulation to HPASMC (human pulmonary artery smooth muscle) cells, which are a model of pulmonary arterial hypertension disease, and a cell proliferation inhibition rate according to treatment with six compounds of Synthesis Examples 1 to 6 were confirmed through cell viability measurement.
HPASMC (5.0×10^3 cells/well) cells were seeded in 96-well plate, and cultured for 24 hours in a serum free medium as starvation. 1 μM concentration of drugs (compounds 43, 295, 296, 40, 239, 285) were simultaneously treated with TGF-β (10 ng/ml) and cultured for 24 hours, after which cell viability was measured through CCK-8 assay, and the results thereof are shown in FIG. 3. In above FIG. 3, a control group indicates cells not treated with TGF-β and the compounds of Synthesis Examples, and “-” indicates cells treated only with TGF-β.

For a further experiment, the system named is HPAEC cells. Briefly: Cell viability (CCK-8) of TGF-β stimulated HPAEC cells. Format: cell-based, Human. To be noted: 1 μM drug with TGF-β 10 ng/ml, 48 hours, vs TGF-β only, FIG. 2. How it is done: TGF-β stimulation to HPAEC cells, which are a model of pulmonary arterial hypertension disease, and the survival rate according to the compounds of Synthesis Examples 1 to 6 were confirmed through cell viability measurement.
HPAEC (2.0×10^3 cells/well) cells were seeded in 96-well plate, and cultured for 24 hours in a serum free medium as starvation. 1 μM concentration of drugs (compounds 43, 295, 296, 40, 239, 285) were simultaneously treated with TGF-β (10 ng/ml) and cultured for 48 hours, after which cell viability was measured through CCK-8 assay, and the results thereof are shown in FIG. 2. In above FIG. 2, a control group indicates cells not treated with TGF-β and the compounds of Synthesis Examples, and “-” indicates cells treated only with TGF-β.

In experiment [2] the test system is tubulin acetylation in HPAEC (Human pulmonary artery endothelial cells). Description: Tubulin acetylation in HPAEC by Western blot (anti-acetyl tubulin). Format: cell-based. Conditions: 4 hours at 37° C., concentration 0.1μ, FIG. 1. How it is done:
HPAEC (3.0×10^5 cells/well, Human pulmonary artery endothelial cells) pulmonary artery endothelial cells were seeded in a six-well plate, and then treated with drugs (compounds 43, 295, 296, 40, 239, and 285) at each concentration. In four hours later at 37° C., proteins were extracted with lysis buffer and quantified by Bradford method. 5 μg of proteins were dissolved in sample buffer, subjected to electrophoresis on 4-12% gradient gel, transferred to a nitrocellulose membrane for seven minutes, and blocked in a 3% BSA solution for one hour. Anti-acetyl tubulin (1:1,000) and GAPDH (1:2,000) were added to the 3% BSA solution, after which the membrane was immersed therein and reacted at 4° C. for 10 hours, and then washed three times with 1×TBST for 10 minutes, respectively. IgG-HRP antibody (1:5,000) was added to 5% BSA, after which the membrane was immersed therein and reacted at room temperature for one hour, and then washed three times with 1×TBST for 10 minutes, respectively. In above FIG. 1, a control group indicates cells not treated with the compounds of Synthesis Examples.
On the technique in general: A western blot detects proteins with antibodies after separation by electrophoresis.

In experiment [3] the test system is SD rats with monocrotaline (MCT)-induced pulmonary arterial hypertension. Briefly: MCT-induced pulmonary arterial hypertension animal model (survival, lung and ventricle weights, ECG). To be noted: 20 mg/kg oral twice a day. It counts as in vivo, rat. As for the experimental part:
SD rats having the following conditions were prepared.
Rats, experimental animals, were divided into groups as follows in consideration of a body weight on the day before drug administration began.
During a test period, the normal group was dosed with saline, and the control group (MCT+Vehicle) was subcutaneously dosed with a monocrotaline (MCT) aqueous solution once at 3 ml/Kg, and then dosed with a vehicle consisting of a mixed solution of cremophor EL, ethanol, and saline at a volume ratio of 1:1:8. A MCT aqueous solution was prepared to reach a concentration of 20 mg/mL in a solvent adjusted to pH 7.4 using a 1 N NAOH solution in 1 N HCL. After that, subcutaneous administration was performed by adjusting to […].
The drug administration group was first subcutaneously dosed with the MCT aqueous solution at 3 ml/Kg once, and then orally dosed with compound 43 (the compound of Synthesis Example 1) at 20 mg/Kg twice a day during the test period (four weeks). The compound 43 was dissolved in a mixed solution of cremophor EL, ethanol, and saline at a volume ratio of 1:1:8, and then orally administered.
All data were expressed as mean±standard error, and each group and the control group were compared using an unpaired T test (p<0.05) to determine the effect of each experimental group.
After group separation and then administration of the MCT aqueous solution, the survival rate was evaluated by confirming a dead individual during the test period.
The individual survival rate was calculated by reflecting the number of animals surviving in the corresponding week from the first 10 animals participating in the experiment for each group. Each number on the left side of the line graph means an individual survival rate % (number of surviving individuals/total number of animals participating in experiment).
After four weeks of the test period, the lung and the heart were removed to measure the weight of the lung and the weight of left ventricle and right ventricle in each group, and the results are shown in FIGS. 5 and 6.
After four weeks of the test period, the animal was subjected to inhalation anesthesia with isoflurane, and electrodes were attached to the limbs to measure the animal's electrocardiogram for more than 30 seconds. The result was measured using a Bio Amp ECG meter and analysis was performed using LabChart 8 software.

The mark [4] stands for this setting: MCT rats, after four weeks, vs control group.

As for `O=C(N1CCS(=O)(=O)CC1)N(Cc1ccc(-c2nnc(C(F)F)o2)cc1F)c1ccccc1` [Compound 40, N-(4-(5-(difluoromethyl)-1,3,4-oxadiazol-2-yl)-2-fluorobenzyl)-N-phenylthiomorpholine-4-carboxamide 1,1-dioxide], the “proliferation rate after TGF-β stimulation” value (“proliferation rate” below) in experiment [1] is “inhibited”. Besides, the “survival rate (cell viability) after TGF-β stimulation” value (“survival rate (cell viability)” for short) with HPAEC cells is reported as “improved”. Also, in experiment [2], the “tubulin acetylation (acetyl tubulin expression level)” value (from here on “tubulin acetylation”) is reported as “tubulin acetylation was expressed”.
For `O=C(N1CCS(=O)(=O)CC1)N(Cc1ccc(-c2nnc(C(F)F)o2)cn1)c1ccccc1` [Compound 43, N-((5-(5-(difluoromethyl)-1,3,4-oxadiazol-2-yl)pyridin-2-yl)methyl)-N-phenylthiomorpholine-4-carboxamide 1,1-dioxide], the “proliferation rate” value in experiment [1] is “inhibited”. For the same compound, in the experiment with HPAEC cells, the “survival rate (cell viability)” value is “improved”. In addition, in experiment [2], the “tubulin acetylation” value is “tubulin acetylation was expressed”. In experiment [3] (MCT 50 mg/kg s.c. once, four weeks, vehicle control 50%, FIG. 4), the individual survival rate came to 90%. Moreover, in experiment [3] (setting [4]), the “JT interval (ECG)” value is listed as “significantly reduced”, the “QT interval (ECG)” value is recorded as “significantly reduced” and the “QTc (ECG)” value is given as “significantly reduced”. Further, the “ratio of right ventricle weight to left ventricle weight” value in experiment [3] (MCT rats, after four weeks, vs control group, FIG. 6) is “significantly reduced”.
For the compound `O=C(N1CCS(=O)(=O)CC1)N(Cc1ccc(-c2nnc(C(F)F)o2)cn1)c1cccc(Cl)c1` [Compound 239, N-(3-chlorophenyl)-N-((5-(5-(difluoromethyl)-1,3,4-oxadiazol-2-yl)pyridin-2-yl)methyl)thiomorpholine-4-carboxamide 1,1-dioxide], in experiment [1], the “proliferation rate” value is listed as “inhibited”. The “survival rate (cell viability)” value in the experiment with HPAEC cells was “improved”. The “tubulin acetylation” value in experiment [2] is given as “tubulin acetylation was expressed”.
The matching figures for `O=C(N1CCS(=O)(=O)CC1)N(Cc1ccc(-c2nnc(C(F)F)o2)cc1F)c1ccc(F)cc1` [Compound 285, N-(4-(5-(difluoromethyl)-1,3,4-oxadiazol-2-yl)-2-fluorobenzyl)-N-(4-fluorophenyl)thiomorpholine-4-carboxamide 1,1-dioxide]: “inhibited”, “improved” and “tubulin acetylation was expressed”.
Turning to `O=C(N1CCS(=O)(=O)CC1)N(Cc1ccc(-c2nnc(C(F)F)o2)cn1)c1ccc(F)cc1` [Compound 295, N-((5-(5-(difluoromethyl)-1,3,4-oxadiazol-2-yl)pyridin-2-yl)methyl)-N-(4-fluorophenyl)thiomorpholine-4-carboxamide 1,1-dioxide], the “proliferation rate” value in experiment [1] is “inhibited”. For the same compound, in the experiment with HPAEC cells, the “survival rate (cell viability)” value was “improved”. Further, in experiment [2], the “tubulin acetylation” value is “tubulin acetylation was expressed”.
On the same counts, the results for `O=C(N1CCS(=O)(=O)CC1)N(Cc1ccc(-c2nnc(C(F)F)o2)cn1)c1cccc(F)c1` [Compound 296, N-((5-(5-(difluoromethyl)-1,3,4-oxadiazol-2-yl)pyridin-2-yl)methyl)-N-(3-fluorophenyl)thiomorpholine-4-carboxamide 1,1-dioxide] are “inhibited”, “improved” and “tubulin acetylation was expressed”.

The record behind these values is patent US20250144109A1, “Compositions for preventing or treating pulmonary arterial hypertension” (CHONG KUN DANG PHARMACEUTICAL CORP., priority 2022, published 2025).
